The values below come from ChEMBL document CHEMBL1201862, “PubChem BioAssay data set” (2004).

Activity calls are given as the source filed them.

Assay [1] has as its target T1, Heat shock factor protein 1 (Mus musculus, UniProt P38532).
T1 sequence (P38532 whole entry): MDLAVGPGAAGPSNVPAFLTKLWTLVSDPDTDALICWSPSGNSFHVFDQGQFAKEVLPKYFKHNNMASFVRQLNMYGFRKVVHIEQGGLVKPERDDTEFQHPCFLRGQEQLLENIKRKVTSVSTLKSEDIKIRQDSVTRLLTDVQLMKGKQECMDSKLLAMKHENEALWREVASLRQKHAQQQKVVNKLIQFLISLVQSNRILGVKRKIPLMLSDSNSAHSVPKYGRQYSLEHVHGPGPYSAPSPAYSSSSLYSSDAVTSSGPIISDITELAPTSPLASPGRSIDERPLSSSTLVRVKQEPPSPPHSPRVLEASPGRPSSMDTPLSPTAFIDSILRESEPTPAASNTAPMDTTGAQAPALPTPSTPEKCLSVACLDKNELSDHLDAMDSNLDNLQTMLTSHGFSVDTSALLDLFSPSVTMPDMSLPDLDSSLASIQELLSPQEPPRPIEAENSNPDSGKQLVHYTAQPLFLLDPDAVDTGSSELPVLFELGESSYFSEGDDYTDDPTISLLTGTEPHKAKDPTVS
The experiment in a line: decrease of HSF1-responsive luciferase luminescence – cell-based, NIH3T3, dose retest, confirmation (AID 2382).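 Also: NIH3T3 fibroblasts with HSF1-driven luciferase reporter stressed by proteasome inhibitor MG132; luminescence from HSF1-driven luciferase expression after 8 hours of MG132 stress.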 The format is functional.

The target of assay [2] is Glucose-6-phosphate 1-dehydrogenase (Homo sapiens, UniProt P11413). The experiment in a line: inhibition of Homo sapiens G6PD, dose series – biochemical, fluorescence, selectivity assay for P. falciparum G6PD inhibitor project, dose response (AID 504792). The format is functional.
Sequence of Glucose-6-phosphate 1-dehydrogenase (P11413 whole entry): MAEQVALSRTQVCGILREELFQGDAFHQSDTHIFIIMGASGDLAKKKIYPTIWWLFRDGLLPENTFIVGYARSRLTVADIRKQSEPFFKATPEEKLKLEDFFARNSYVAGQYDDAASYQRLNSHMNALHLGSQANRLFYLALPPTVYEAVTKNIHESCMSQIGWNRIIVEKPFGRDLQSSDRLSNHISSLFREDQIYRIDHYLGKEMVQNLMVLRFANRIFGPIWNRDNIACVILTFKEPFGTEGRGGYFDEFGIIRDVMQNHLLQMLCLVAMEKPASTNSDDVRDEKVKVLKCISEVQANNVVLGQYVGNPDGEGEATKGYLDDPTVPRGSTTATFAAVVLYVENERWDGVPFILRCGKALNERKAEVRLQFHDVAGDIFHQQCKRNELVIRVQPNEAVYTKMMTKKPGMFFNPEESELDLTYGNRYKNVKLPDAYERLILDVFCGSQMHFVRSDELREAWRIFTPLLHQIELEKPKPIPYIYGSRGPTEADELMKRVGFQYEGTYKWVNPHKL
Assay [3] concerns BJ. The assay is described as follows: BJ-TERT-LT-ST fibroblast viability loss – cell-based, RAS-independent, luminescence, dose response (AID 1935).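 Also: BJ fibroblasts immortalized with TERT plus LT and ST oncogenes.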 The format is functional. Particulars: Homo sapiens.
The test system of assay [4] is BJ. The experiment in a line: BJ-TERT fibroblast viability loss – cell-based, RAS-independent, luminescence, dose response (AID 1933). To be noted: Homo sapiens. The format is functional.
In assay [5] the test system is BJ. The assay is described as follows: growth inhibition of engineered Ras-driven BJ cells – cell-based, alamar blue fluorescence, cherrypicked samples, dose response (AID 2631).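 Also: confirmatory dose-response assay in RAS-dependent BJ fibroblasts engineered with TERT, LT and ST, with cytotoxicity read by fluorescence.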 The format is functional. Particulars: Homo sapiens. For orientation: Resazurin is reduced to fluorescent resorufin, in cell work by metabolically active cells.
Assay [6] has as its system BJ. The assay is described as follows: cells. The format is functional, cell-based. To be noted: Homo sapiens.
Assay [7] concerns INS1. The experiment in a line: INS-1E survival protection against cytokine death – cell-based, luminescence, retest, dose response (AID 449756).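 Also: cell death triggered by IL-1 beta plus TNF-alpha plus IFN-gamma mixture; protective hits raise ATP signal compared with cytokine alone wells.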 The assay is classed as functional. To be noted: Rattus norvegicus.
The nature of assay [8]: DRD fibroblast viability loss – cell-based, non-viral oncogenic, luminescence, dose response (AID 1934). Particulars: Homo sapiens. The format is functional.
The nature of assay [9]: decrease of insulin promoter-GFP reporter – imaging, high-content screening, mouse beta cells (AID 1628). The assay is classed as functional. Particulars: MIN6.
Assay [10] in a line: MIN6 cell viability loss – mouse insulinoma, cytotoxicity control, dose response (AID 2122).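 Also: confirmatory high-throughput counterscreen run to flag cytotoxic compounds.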 The assay is classed as functional.
Assay [11] concerns the target T2, Rac GTPase-activating protein 1 (Homo sapiens, UniProt Q9H0H5).
T2 sequence (Q9H0H5 whole entry): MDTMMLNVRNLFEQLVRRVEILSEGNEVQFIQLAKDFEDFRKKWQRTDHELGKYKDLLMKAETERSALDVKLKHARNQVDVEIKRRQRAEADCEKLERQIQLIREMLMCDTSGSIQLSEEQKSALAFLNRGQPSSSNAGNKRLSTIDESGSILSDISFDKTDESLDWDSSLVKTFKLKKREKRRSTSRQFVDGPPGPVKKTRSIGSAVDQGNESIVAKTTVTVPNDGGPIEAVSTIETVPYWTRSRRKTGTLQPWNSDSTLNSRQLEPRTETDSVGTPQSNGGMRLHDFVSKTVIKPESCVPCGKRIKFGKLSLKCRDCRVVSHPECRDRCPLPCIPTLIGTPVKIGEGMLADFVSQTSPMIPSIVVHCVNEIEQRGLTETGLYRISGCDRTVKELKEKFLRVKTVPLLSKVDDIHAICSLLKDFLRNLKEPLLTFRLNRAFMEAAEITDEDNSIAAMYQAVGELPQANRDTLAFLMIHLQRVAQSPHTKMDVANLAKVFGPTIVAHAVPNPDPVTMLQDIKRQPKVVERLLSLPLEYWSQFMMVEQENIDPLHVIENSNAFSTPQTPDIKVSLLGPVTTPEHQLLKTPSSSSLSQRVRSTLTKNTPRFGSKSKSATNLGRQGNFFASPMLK
The assay is described as follows: blockers of MgcRacGAP-driven Rac1 GTP hydrolysis – biochemical, ADP Hunter fluorescence, primary and confirmatory, confirmation (AID 624330). The format is functional.

The nature of assay [12]: Counterscreen for AddAB inhibitors: absorbance-based bacterial cell-based high throughput dose response assay for inhibitors of bacterial viability. [Related pubchem assays (depositor defined):AID435030, AID449728, AID449731, AID488942, AID488955, AID488956]. The assay is classed as functional.
Assay [13] has as its target Large T antigen (Simian virus 40, UniProt P03070). The assay is classed as functional, Betapolyomavirus macacae.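 Also: Confirmatory-stage PubChem screen for compounds that inhibit SV40 T antigen.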
The target of assay [14] is T3, Exodeoxyribonuclease V (Escherichia coli (strain K12), UniProt P04993+P07648+P08394).
T3 sequence (P04993 whole entry): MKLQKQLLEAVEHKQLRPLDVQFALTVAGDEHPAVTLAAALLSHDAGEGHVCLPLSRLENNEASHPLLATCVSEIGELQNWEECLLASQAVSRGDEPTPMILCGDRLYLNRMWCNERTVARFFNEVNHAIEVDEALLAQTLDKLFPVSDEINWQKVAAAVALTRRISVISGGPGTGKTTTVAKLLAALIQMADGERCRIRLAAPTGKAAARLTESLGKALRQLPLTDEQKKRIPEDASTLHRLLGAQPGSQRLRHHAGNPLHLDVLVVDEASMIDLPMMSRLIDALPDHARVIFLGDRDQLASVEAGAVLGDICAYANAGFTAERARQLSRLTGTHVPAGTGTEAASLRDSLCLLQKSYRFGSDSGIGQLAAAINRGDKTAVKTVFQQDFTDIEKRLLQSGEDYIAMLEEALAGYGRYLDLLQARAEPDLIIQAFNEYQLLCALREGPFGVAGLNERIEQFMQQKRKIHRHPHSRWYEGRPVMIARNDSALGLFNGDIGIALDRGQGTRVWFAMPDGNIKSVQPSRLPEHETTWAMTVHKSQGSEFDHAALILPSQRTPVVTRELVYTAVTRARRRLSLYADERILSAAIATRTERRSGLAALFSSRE
T3 sequence (P07648 whole entry): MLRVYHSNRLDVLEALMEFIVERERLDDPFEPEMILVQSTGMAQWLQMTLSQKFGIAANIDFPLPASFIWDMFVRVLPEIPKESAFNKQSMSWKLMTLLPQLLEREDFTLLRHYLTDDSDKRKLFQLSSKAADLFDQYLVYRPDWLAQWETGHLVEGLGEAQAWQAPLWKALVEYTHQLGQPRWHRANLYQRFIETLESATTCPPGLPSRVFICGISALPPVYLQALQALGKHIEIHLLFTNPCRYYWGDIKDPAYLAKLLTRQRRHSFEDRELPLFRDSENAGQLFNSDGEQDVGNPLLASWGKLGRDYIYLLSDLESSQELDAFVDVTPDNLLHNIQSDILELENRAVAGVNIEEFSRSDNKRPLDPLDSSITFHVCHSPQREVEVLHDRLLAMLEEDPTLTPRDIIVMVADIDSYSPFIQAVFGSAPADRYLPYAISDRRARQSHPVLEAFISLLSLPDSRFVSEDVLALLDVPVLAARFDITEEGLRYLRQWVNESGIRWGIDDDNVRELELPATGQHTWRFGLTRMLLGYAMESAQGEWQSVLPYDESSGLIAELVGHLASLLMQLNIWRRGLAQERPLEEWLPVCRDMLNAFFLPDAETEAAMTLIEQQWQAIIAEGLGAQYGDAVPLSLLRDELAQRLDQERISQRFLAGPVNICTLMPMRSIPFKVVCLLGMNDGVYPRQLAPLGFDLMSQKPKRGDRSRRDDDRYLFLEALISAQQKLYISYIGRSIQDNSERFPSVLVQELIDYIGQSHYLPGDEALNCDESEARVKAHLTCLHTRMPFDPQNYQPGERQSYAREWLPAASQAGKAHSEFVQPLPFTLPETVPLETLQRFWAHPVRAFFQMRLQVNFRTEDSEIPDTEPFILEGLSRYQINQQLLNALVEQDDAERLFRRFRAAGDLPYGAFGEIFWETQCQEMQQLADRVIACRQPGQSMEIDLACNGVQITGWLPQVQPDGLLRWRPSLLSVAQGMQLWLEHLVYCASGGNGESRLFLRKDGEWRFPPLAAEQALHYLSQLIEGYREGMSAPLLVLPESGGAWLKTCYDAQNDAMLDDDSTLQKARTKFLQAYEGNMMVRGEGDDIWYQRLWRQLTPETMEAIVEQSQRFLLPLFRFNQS
T3 sequence (P08394 whole entry): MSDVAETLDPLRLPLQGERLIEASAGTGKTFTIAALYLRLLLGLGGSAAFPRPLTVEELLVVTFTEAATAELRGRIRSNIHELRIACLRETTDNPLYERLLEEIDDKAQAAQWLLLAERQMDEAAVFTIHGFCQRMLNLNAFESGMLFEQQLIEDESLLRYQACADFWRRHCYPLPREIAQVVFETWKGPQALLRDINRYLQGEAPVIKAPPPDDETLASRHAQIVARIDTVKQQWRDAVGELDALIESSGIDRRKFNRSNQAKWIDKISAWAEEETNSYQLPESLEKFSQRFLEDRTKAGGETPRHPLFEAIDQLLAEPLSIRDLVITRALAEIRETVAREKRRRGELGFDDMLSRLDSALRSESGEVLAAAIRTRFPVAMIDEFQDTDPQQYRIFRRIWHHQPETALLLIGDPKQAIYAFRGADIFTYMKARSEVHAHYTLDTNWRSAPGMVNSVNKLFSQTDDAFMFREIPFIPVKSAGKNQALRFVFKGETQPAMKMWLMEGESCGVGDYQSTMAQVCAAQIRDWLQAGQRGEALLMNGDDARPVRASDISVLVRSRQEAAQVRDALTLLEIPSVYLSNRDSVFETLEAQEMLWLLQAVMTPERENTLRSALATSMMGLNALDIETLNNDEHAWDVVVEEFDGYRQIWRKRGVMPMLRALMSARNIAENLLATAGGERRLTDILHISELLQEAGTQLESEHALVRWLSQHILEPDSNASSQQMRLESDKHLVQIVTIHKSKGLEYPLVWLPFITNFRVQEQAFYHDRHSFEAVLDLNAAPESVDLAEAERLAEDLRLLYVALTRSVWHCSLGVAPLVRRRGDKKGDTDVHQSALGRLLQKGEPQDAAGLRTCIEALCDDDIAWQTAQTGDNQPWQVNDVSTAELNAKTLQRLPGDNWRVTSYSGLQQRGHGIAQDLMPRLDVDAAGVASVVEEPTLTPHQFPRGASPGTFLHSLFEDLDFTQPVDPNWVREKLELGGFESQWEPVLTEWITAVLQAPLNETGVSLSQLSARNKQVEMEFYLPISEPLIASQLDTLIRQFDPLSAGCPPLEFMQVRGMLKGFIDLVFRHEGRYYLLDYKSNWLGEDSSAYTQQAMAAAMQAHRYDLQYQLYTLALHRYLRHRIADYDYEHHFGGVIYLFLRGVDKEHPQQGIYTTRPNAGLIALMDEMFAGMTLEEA
The experiment in a line: RecBCD inhibition via phage-restricted bacterial growth – absorbance, V66 E. coli, mutant T4 phage, counter-screen for AddAB inhibitor project, dose response (AID 492957). The assay is classed as functional, cell-based, Escherichia coli str. K-12 substr. MG1655. In general terms: Counterscreens check selectivity or assay interference.

Assay [15] is described as follows: alpha-synuclein stem-loop luciferase translation blockers – H4 neuroglioma cells, luminescence, confirmation (AID 1988). The assay is classed as functional, cell-based.
A short description of assay [16]: luciferase reporter signal suppression in cells – H4 neuroglioma cells, luminescence, dose response (AID 1990). The format is functional, cell-based. (A reporter such as luciferase makes a cellular process visible.)
Assay [17] can be described thus: Luminescence Cell-Based Dose Response HTS to Identify Inhibitors of 5'UTR Stem-Loop Driven Prion Protein mRNA Translation in H4 Neuroglioblastoma Cells. [Related pubchem assays: 1827 (Project Summary), 1813 (Primary HTS)]. The assay is classed as functional.

Sequence of Large T antigen (P03070 whole entry): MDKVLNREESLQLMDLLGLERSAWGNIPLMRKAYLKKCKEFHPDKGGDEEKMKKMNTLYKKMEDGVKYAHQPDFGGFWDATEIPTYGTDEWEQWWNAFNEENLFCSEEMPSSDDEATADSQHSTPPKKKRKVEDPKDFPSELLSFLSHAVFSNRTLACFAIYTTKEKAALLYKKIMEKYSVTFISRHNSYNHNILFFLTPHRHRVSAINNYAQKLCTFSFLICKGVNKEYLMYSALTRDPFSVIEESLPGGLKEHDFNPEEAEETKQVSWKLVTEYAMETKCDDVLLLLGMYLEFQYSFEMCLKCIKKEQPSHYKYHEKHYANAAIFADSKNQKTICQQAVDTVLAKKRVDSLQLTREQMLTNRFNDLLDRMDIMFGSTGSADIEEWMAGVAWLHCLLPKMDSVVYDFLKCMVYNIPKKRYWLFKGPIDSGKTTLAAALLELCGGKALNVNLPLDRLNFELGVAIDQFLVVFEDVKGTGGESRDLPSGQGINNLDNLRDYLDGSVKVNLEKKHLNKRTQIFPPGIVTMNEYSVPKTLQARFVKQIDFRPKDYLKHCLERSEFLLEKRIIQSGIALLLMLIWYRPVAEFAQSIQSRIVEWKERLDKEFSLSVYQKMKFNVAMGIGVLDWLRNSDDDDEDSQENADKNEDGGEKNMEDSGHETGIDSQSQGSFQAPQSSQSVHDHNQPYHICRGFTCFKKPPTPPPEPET

In the case of `Cc1nc2ccccn2c1-c1ccnn1S(=O)(=O)c1ccc(F)cc1`, the EC50 (as a rule, the midpoint of the concentration-response curve) in [1] was > 195 µM (not active). Besides, the IC50 (usually the midpoint of a concentration-inhibition curve) in assay [2] is > 80 µM (inactive).
Take `CC(=O)Nc1ccc(NC(=O)CN(c2cccc([N+](=O)[O-])c2)S(C)(=O)=O)cc1`: the EC50 in assay [3] was > 150 µM (inconclusive); in [4], > 150 µM (not active); in [5], 11.8 µM (active); in [6], 3.09 µM (inconclusive); in [8], > 150 µM (inconclusive). Besides, in [7], the AC50 (as a rule, the concentration at which the activity in the assay is half-maximal) is 6.91 µM (active).
As for `CC(C)Cc1nc2oc3c(NCC4CCCO4)ncnc3c2c2c1CCC2` (stereo unspecified), the IC50 in [9] was 1.4 µM (active); in [10], 4.96 µM (active).
On to `CC1(C)OC(=O)C(N=Nc2ccc(O)cc2)=C(O)O1`, for which the IC50 in assay [11] is 20.9 µM (active); in [12] it was > 119 µM (inactive); in [13], 6.72 µM (active); in assay [14] it was > 119 µM (inactive).
As for `CC(C)CCNc1nnnc2c1sc1nc(N3CCOCC3)c3c(c12)CC(C)(C)SC3`, the IC50 is 2.29 µM (active) in assay [9] and 12.5 µM (inactive) in assay [10]. The EC50 in assay [15] was > 120 µM (not active); in [16], 27.9 µM (active); in assay [17], > 120 µM (not active).
For `CC(C)Oc1ccc(Cc2cnc(N)nc2N)cc1`, the results for the IC50 in assay [12] and in [14] were 36.5 µM (inactive) and 56.3 µM (inactive), respectively.
